As usually defined, the Ki is a measure of affinity in units of concentration, obtained from inhibition or displacement.

In data set [1] the test system is HeLa cell line stably expressing HaloTag-GFP fusion protein. Nature of the data set: Chloroalkane penetration assay (CAPA). The class given is in vitro ADME. The note with it: cell membrane permeability, CA-tagged peptides, mean ± SEM, n ≥ 3. As to the method:
The HeLa cell line used for CAPA assay was generated by Chenoweth and co-workers and provided by Kritzer and co-workers. The cells stably express a HaloTag-GFP fusion protein anchored through a mitochondria targeting peptide exposed to the cytosol. For CAPA, Hela cells were seeded using DMEM supplemented with FBS in a 96-well plate one day before the experiment at a density of 4×10^4 cells/well. Just before the assay, the growth media was aspirated off and replaced with Opti-MEM assay media (100 μL/well). DMSO stocks of peptides (10 mM) were diluted in Opti-MEM to prepare serial dilutions of peptides in a separate 96-well PCR plate ensuring the final concentration of DMSO was kept consistent and below 1%. Subsequently, 25 μL of peptide solution was added into each well and the plate was incubated for 4 h at 37° C. with 5% CO2. After aspirating the assay media off, cells were washed with fresh Opti-MEM (80 μL/well) for 15 min at rt. Following removal of the washing media, cells were incubated with 5 μM CA-TAMRA in Opti-MEM (50 μL/well) for 15 min. Non CATAMRA control wells were incubated with Opti-MEM alone (50 μL/well). […] After aspiration, cells were trypsinized using clear Trypsin (20 μL/well, 10 min at 37° C.), resuspended in PBS containing 2% FBS ([…]), and analyzed using a benchtop flow cytometer (Guava EasyCyte, EMD Millipore).

Data set [2] addresses Sushi domains (SD1/2) protein. In words: Fluorescence polarization (FP) competition assay with AJAP-1probe, calculated Ki. The class given is binding. In short, it runs like this:
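Competition against 25 nM TAMRA-labelled peptide probe binding SD1/2, in PBS pH 7.4 with 1% BSA at rt, read at 530/580 nm. IC50 from sigmoidal dose-response fits, at least triplicate; Ki calculated from IC50 using probe Kd from saturation binding.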

Read-outs that look alike come from different tables or passages of the source.

“DDDWIDWYDSDDDYGRKKRRQRRR [Peptide 16-Tat]”: the “CP50” value in data set [1] came to 19 ± 0.4 µM. The Ki in data set [2] (CPP tagged peptides overview, SD1/2 binding affinity, mean ± SEM, n ≥ 3, read-out: Ki) is 71 ± 1 nM; in data set [2] (Table 14, CPPs tagged peptides, read-out: Ki (nM) mean ± SEM), 70.5 ± 0.3 nM.

Source of the values: patent publication US20260193293A1, “PEPTIDES CAPABLE OF INHIBITING PROTEIN-PROTEIN INTERACTIONS AT GABAB1A SUBUNIT AND USES THEREOF” (UNIVERSITY OF COPENHAGEN, priority 2022, published 2026).
